The record followed here is PubChem BioAssay (NCI).

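All cell lines were grown in 96-well plates and treated with compound for 48 hours. TGI: concentration producing complete growth inhibition.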 Where a SMILES comes first, the peptide text is derived from it. The star is where a group is joined. Boc = CC(C)(C)OC(=O)*

Holding throughout (assay): NCI-60 cell line screen, 48 h
For test [1], the system named is ACHN renal.
Test [2] has as its system DU-145 prostate.
Test [3] concerns HOP-92 NSCLC.
Test [4] has as its system IGROV1 ovarian.
For test [5], the system named is KM12 colon.
Test [6] has as its system NCI-H23 lung.
Test [7] relates to PC-3 prostate.
Test [8] concerns RPMI-8226 leukemia.
Test [9] deals with SNB-75 CNS.
For test [10], the system named is NCI-H226 lung.

`CCCCC(C#N)(OP1(=O)OC(c2ccccc2)C(C)N1C)c1ccccc1` (stereo unspecified): the TGI stood at 37.5 µM in [1]; 43.4 µM in test [2]; 25.8 µM in test [3]; 32.3 µM in test [4]; 37.2 µM in [5]; 41.9 µM in test [6]. For the same molecule, the TGI stood at 32.7 µM in [7], 53.2 µM in [8] and 37.3 µM in test [9].
`Nc1ncnc2c1nnn2C1C=CC(COS(N)(=O)=O)C1` (stereo unspecified): the TGI was 49.1 µM in test [1]; greater than 100 µM in [2]; greater than 100 µM in test [4]; 86.3 µM in test [5]; 42.1 µM in test [10]; 18.2 µM in test [6]. Also, the results for the TGI in test [7], in [8] and in test [9] were 26.9 µM, 50.7 µM and 39.3 µM, respectively.
With `Cc1cnc2sn(-c3ccc(Oc4ccccc4)cc3)c(=O)c2c1`, the TGI was determined as 31.6 µM in [1]; 37.8 µM in [2]; 45.5 µM in [4]; 28 µM in test [5]; 47.6 µM in test [10]; 80.3 µM in [6]. For the same molecule, the TGI in [7] is 29.8 µM; in [8], greater than 100 µM; in [9], 34.5 µM.
Take `CCCCCCCCOC1C(O)C(O)C(O)C(O)C12CO2` (stereo unspecified): the TGI in test [1] is greater than 100 µM; in test [2], greater than 100 µM; in [4], greater than 100 µM; in [5], greater than 100 µM; in test [10], greater than 100 µM; in test [6], 31.3 µM. Also, the TGI in [7], in test [8] and in [9] was greater than 100 µM throughout.
For the molecule `CCCSc1ccc2[nH]c(N3C(=O)/C(=C/c4ccco4)N=C3c3ccccc3)cc2c1`, the TGI in test [1], in test [2], in [3], in [4], in test [5] and in test [6] was greater than 50 µM in each case. Besides, the TGI in [7], in test [8] and in [9] was greater than 50 µM throughout.
For `CC(=O)N=C1N(/C=C2\C(=O)Oc3ccccc3C2=O)C(=O)/C(=C/c2ccc(OC(C)=O)cc2)N1C`, the TGI in test [1], in test [2], in test [4], in test [5], in [10] and in test [6] was greater than 100 µM in each case. Further, the TGI in test [7], in test [8] and in [9] was greater than 100 µM in each case.
Consider `COC(=O)C1C/C(=C/N(C)C)C(=S)N1` (stereo unspecified), for which the TGI in test [1], in test [2], in [3], in test [4], in [5] and in [6] was greater than 100 µM throughout. Moreover, the TGI in [7], in test [8] and in test [9] was greater than 100 µM in each case.
Regarding `CCC12CCCN(Cc3ccccc3)C1c1c([nH]c3ccccc13)C(C(=O)OC)C2` (stereo unspecified), the TGI in test [1], in test [2], in [3], in [4], in test [5] and in [6] was greater than 10 µM in each case. In addition, the TGI in test [7], in test [8] and in test [9] was greater than 10 µM in each case.
Consider `BrCCCCCOc1ccc(-c2c3ccccc3c(-c3ccc(OCCCCCBr)cc3)c3ccccc23)cc1`, for which the TGI in test [1], in test [2], in test [4], in [5], in test [10] and in test [7] was greater than 100 µM in each case. For the same molecule, the TGI in test [8] and in test [9] was greater than 100 µM each time.
Turning to `COC(=O)C(Cc1c[nH]c2ccccc12)NC(=O)C(Cc1c[nH]c2ccccc12)NC(=O)C(Cc1c[nH]c2ccccc12)NC(=O)C(Cc1c[nH]c2ccccc12)NC(=O)C(Cc1c[nH]c2ccccc12)NC(=O)C(Cc1c[nH]c2ccccc12)NC(=O)OC(C)(C)C` (stereo unspecified) (Boc-WWWWWW-OMe; configuration not given here), the TGI in [1], in [2], in [4], in test [10], in test [6] and in test [7] was greater than 100 µM in each case. Moreover, the TGI in test [8] and in [9] was greater than 100 µM in each case.
As to `O=C(NCCC1([N+](=O)[O-])CCN(C(=O)c2ccccc2)CC1)c1ccccc1`, the TGI in test [1], in test [2], in [4], in test [5], in test [10] and in test [6] was greater than 100 µM each time. The TGI in [7] and in test [8] was greater than 100 µM in each case.
